What was measured:
[1] = system: peripheral and central effects of morphine; parameters: method as in Eldon et al., 2015; settings: healthy male volunteers administered morphine; ref Eldon et al., 2015; cited from earlier work
[2] = system: morphine-induced inhibition of gastrointestinal transit; experiment: Gastrointestinal transit model (charcoal meal), antagonism of morphine

C=CCN1CC[C@]23c4c5ccc(O)c4O[C@H]2[C@@H](OCCOCCOCCOCCOCCOCCOCCOC)CC[C@@]3(O)[C@H]1C5 [Naloxegol, naloxegol]
effect on morphine-induced miosis [1]: no change in morphine-induced miosis | effect on orocecal transit time [1]: reduced orocecal transit time | oral dose that completely reversed the effect of morphine ([2]; GI transit assay, rat): 90 mg/kg | ED50 ([2]; Rattus norvegicus, read-out: ED50, antagonism of morphine in GI transit): 23.1 mg/kg | times less potent than naloxone ([2]; comparison of ED50 values): approximately 33 fold | separation in PNS versus CNS effect ([2]; rat, GI transit versus hot plate): twofold

— paper PMC5399635 (The Journal of Pharmacology and Experimental Therapeutics, 2017)
